Reference: article PMC9387934, “Randomized single oral dose phase 1 study of safety, tolerability, and pharmacokinetics of Iminosugar UV-4 Hydrochloride (UV-4B) in healthy subjects” (PLoS Neglected Tropical Diseases, 2022)
Structures can show the parent of a compound that is named as a salt. Where two headings read alike, the source gives them in different places.

Experiments:
[1] = parameters: method as in Investigator’s Brochure (IB); settings: single oral dose, ferrets; ref Investigator’s Brochure (IB); cited from earlier work
CYP2C19 = tested on: CYP2C19; parameters: method as in Investigator’s Brochure (IB); settings: in vitro; ref Investigator’s Brochure (IB); cited from earlier work
CYP3A4/5 = tested on: CYP3A4/5; parameters: method as in Investigator’s Brochure (IB); settings: ref Investigator’s Brochure (IB), cited from earlier work
in vivo = assay: in vivo; parameters: species or system AG129 mice; settings: Crl:CD1(ICR), dose-adjusted PK data from the 25 mg/kg/day dose of the mouse 14-day study, read-out: Cmax at which relevant pharmacological activity is expected
Description: UV-4B was evaluated in four in vitro genetic toxicology assays (two Ames bacterial reverse mutation, mouse lymphoma assay, and chromosomal aberration in cultured human lymphocytes), and in an in vivo (mouse bone marrow micronucleus). UV-4B was not found to be mutagenic or clastogenic in any of these assays
2.2 Rationale for Dose Selection
This is a single-ascending dose study in which UV-4B will be administered for the first time in humans. The study will evaluate the safety, tolerability, and PK of increasing oral doses of […]
The results from this study will form the basis for the selection of doses of UV-4B to be used in future studies in healthy subjects and in patients diagnosed with uncomplicated DENV infection.
In the studies summarized below, the dose stated refers to the free-base used in vitro or administered during in vivo experiments.
The proposed doses for Cohorts 1 through 8 will range from 3 mg to 1000 mg of UV-4B (dose stated refers to the free base; see Table 2). […]
UV-4B, administered orally TID (intragastric via oral gavage) for a total number of 7 days (first dose administered 1 hour prior to infection) was effective in promoting survival of AG129 mice challenged with DENV. Of the doses evaluated (2.5, 5, 10, 20, and 40 mg/kg TID), the minimal effective dose (survival of 90% to 100%) was determined to be 10 mg/kg TID (UV4-LIA-0002). […]

[2] = parameters: method as in Investigator’s Brochure (IB); settings: in vitro; ref Investigator’s Brochure (IB); cited from earlier work
[3] = rat, cited from earlier work
[4] = parameters: method as in Investigator’s Brochure (IB); settings: mice, 1000 mg/kg single dose; ref Investigator’s Brochure (IB); cited from earlier work
[5] = tested on: human ether-a-go-go-related gene potassium channel; settings: at UV-4 concentration more than 20-fold higher than expected at the planned ceiling dose in humans; ref Investigator’s Brochure (IB); cited from earlier work
[6] = Reproductive toxicity upper limit study in rats, 12 days; type: in vivo, rat; settings: 50 mg/kg/day
Description: 7. Reproductive toxicity:
UV-4B has been evaluated for developmental and reproductive toxicity in fertility and early embryonic development in rats, embryo-fetal development in rats and rabbits, and pre- and postnatal development in rats. In male and female rats given UV-4B at 8, 20, and 50 mg/kg/day before mating and continuing through Gestation Day 13, a […]
observed at 50 mg/kg/day. […]
count but following a 21-week treatment-free period there was complete recovery in pregnancy and fertility indices However, decrease in testicular weight, sperm motility […]
identify the upper limit of reproductive toxicity, a dose of 50 mg/kg/day for 12 […]
In a study designed to identify the upper limit of reproductive toxicity, a dose of 50 […]
rabbit offspring. The rat and rabbit doses are equivalent to 486 and 966 mg/day, […]
In summary, findings that have been identified in the UV-4B toxicology studies so far include effects on the GI tract (including ulcers/erosions), lymphocytes and lymphoid tissue, reduction in PLT count, and increases in transaminases (AST>ALT). Findings were generally consistent across mouse, dog, and rat, apart from the isolated finding of swollen paws/legs and perioral appearance and red skin which was seen only in the rat. […]

SMILES | t1/2 [1] | Direct inhibition of CYP2C19 (CYP2C19) | Direct inhibition of CYP3A4/5 (CYP3A4/5; midazolam 1’-hydroxylase) | Direct inhibition of CYP3A4/5 (CYP3A4/5; testosterone 6β-hydroxylase) | Estimated IC50 (CYP3A4/5; testosterone 6β-hydroxylase) | IC50 (CYP3A4/5; testosterone 6β-hydroxylase, read-out: Estimated IC50) | Cmax (in vivo) | Mutagenicity, mouse lymphoma assay [2] | Dose with increased WBC and lymphocyte count ([3]; printed men) | Dose with swollen paws/legs and perioral appearance and red skin, paws, and/or feet ([3]; women [sic]) | Cardiovascular Effects [3] | Dose with decreased PLT and reticulocyte count [3] | Dose with erosion/ulcer, inflammation, decreased mucus in stomach, hyperplasia/hyperkeratosis [3] | Dose with extramedullary hematopoiesis decreased in spleen and liver [3] | Dose with increased AST and ALT [3] | Respiratory function [4] | Inhibition of hERG potassium channel [5] | Human equivalent of the rat dose [6]
COCCCCCCCCCN1C[C@H](O)[C@@H](O)[C@H](O)[C@H]1CO [UV-4, N-(9’-methoxynonyl)-1-deoxynojirimycin] | 2 h | No clinically relevant direct inhibition | No clinically relevant direct inhibition | weak direct inhibition | > 191 mg/L | > 600 µM | 4 to 8 µg/mL | – | – | – | – | – | – | – | – | – | – | –
COCCCCCCCCCN1C[C@H](O)[C@@H](O)[C@H](O)[C@H]1CO [UV-4B, N-(9’-methoxynonyl)-1-deoxynojirimycin hydrochloride] | – | – | – | – | – | – | – | not found to be mutagenic or clastogenic | ≥ 10 mg/kg/dose, TID | < 60 mg/kg/dose, TID | none observed | ≥ 10 mg/kg/dose, TID | ≥ 25 mg/kg/dose, TID | 60 mg/kg/dose, TID | ≥ 10 mg/kg/dose, TID | no adverse treatment-related effects | did not inhibit | 486 mg/day
